Laboratory results from publication PMC11063393 (Heliyon, 2024).

Molecular target: tyrosinase
Assay: absorbance at […] nm, L-DOPA oxidation
Assay type: biochemical
Conditions: L-DOPA […] stock, […] phosphate, pH […] °C, […] min preincubation

Structure (SMILES): O=c1c(O)c(-c2ccc(O)c(O)c2)oc2cc(O)cc(O)c12 [Quercetin]
- Control (Quercetin) / IC50 (μg/mL)s: 22.15 ± 0.12 µg/mL
